{"source": "patent US7637980B2", "about": "“Method of increasing photosynthesis in plants comprising an exposure thereof to lipochitooligosaccharides and compositions therefor” (McGill University, priority 1999, dated 2009)", "assay_type_in_all_cases": "in vivo", "key": {"corn (Pioneer 3921)": {"test_system": "corn (Pioneer 3921)", "assay": "Photosynthesis of field-grown corn after LCO spray", "description": "Single row corn plots (Pioneer 3921) were established during the 1999 and 2000 cropping seasons. The rows were 75 cm apart and their was an average of 20 cm between plants. The plants were sprayed at 40 DAP. Photosynthetic rates were recorded each day for 5 days after spray application. However, multiple sprays of LCO on corn were not possible due to limitations of LCO supplies, and because only single row plots were used yields were not recorded. As with the indoor experiments, photosynthetic readings were taken every day for five days after the application of LCO. For soybean additional developmental and agronomic data were collected. The first harvest was conducted at 25 days after the first spray treatment. Five plants were harvested from each plot and the following growth variables were analyzed: plant height, number of branches, number of leaves, leaf area, number of flower clusters, number of pods, number of nodules, dry weights of leaves, stem and roots. The final harvest was conducted after physiological maturity of the plants (Fehr et al., 1971); at this time the remaining fifteen treated plants from each plot were harvested and data on number of branches, number of pods, number of seeds and grain yield per plant was collected."}, "soybean": {"test_system": "soybean", "assay": "Foliar spray of LCO on yield of soybean (2000 cropping season)", "conditions": "for Seed yield/plant / Seed yield: 0% seed moisture; for Seed yield: assuming 500,000 plants per ha", "source_text": "LCO 10^−6 M improved the yield by about 60%. The increase in yield was due to the increase in the number of pods/plant. The 100-seed weight was not increased by LCO spray during the 2000 field season. Also of note, the LCO application in the field experiments in year 2000 were by spraying whole plots, as opposed to individual plants (1999). Thus, the LCO effects described in the present invention are also observable when using large production application methods."}, "[1]": {"test_system": "corn (Zea mays cv Pioneer 3921)", "assay": "Photosynthesis of corn after LCO spray, greenhouse", "description": "(§1) Seeds of rice (Oryza sativa cv Cypress), canola (Brassica napus cv Springfield), corn (Zea mays cv Pioneer 3921) and melon (Cucumis melo cv Nova) were surface sterilized with 2% sodium hypochlorite for 3-4 min, washed with several changes of sterile distilled water and planted in plastic pots (15 cm dia) containing promix (Premier Brands Inc., New Rochelle, N.Y., USA).\n(§2) Concentrations of LCO (10^−6 M-10^−12 M) were made with distilled water containing 0.02% Tween 20. A control treatment, containing 0.02% Tween 20, but no LCO was also applied. Since the rates of growth and development differed among the plant species used in the experiments, spray treatment was conducted at different times after planting In general, the spray was applied when the plants were big enough to allow easy measurements of leaf photosynthetic rates. The following are the ages of the plants when the sprays were conducted: soybean 21 days after planting (DAP), corn 25 DAP, rice 45 DAP, melon (35 DAP) and canola 30 DAP. The plants were sprayed with LCO solutions until dripping. The sprays were applied with an atomizer (Nalgene, USA). Each plant required 2-3 mL of spray solution. Each treatment was replicated at least five times and organized on the green house bench in a randomized complete block design. Each experiment (with each crop species) was repeated at least twice.\n(§3) Photosynthesis was recorded every 24 h using a Li-Cor 6400 portable photosynthesis system (Li-Cor Inc., Lincoln, Neb., USA) for 6 days. In the case of soybean the photosynthesis in the second nodal leaf from the top was recorded while in the other species used in the photosynthetic rate was measured for the top-most fully expanded leaf. Soybean plants were harvested after seven days of LCO treatment and dried at 80° C. for 48 h. Data were analyzed with the Statistical Analysis System (SAS Inc., N.C., USA). Percent increase in photosynthesis over the control was calculated."}, "[2]": {"test_system": "canola (Brassica napus cv Springfield)", "assay": "Photosynthesis of canola after LCO spray, greenhouse", "description": "as §1, §2, §3"}, "soybean (cv Bayfield)": {"test_system": "soybean (cv Bayfield)", "assay": "Leaf area and shoot dry weight of soybean after LCO spray, greenhouse", "conditions": "seven days after treatment", "description": "Soybean (cv Bayfield) seeds were surface sterilized with 2% sodium hypochlorite for 3-4 minutes, washed with several changes of sterile distilled water and germinated in plastic trays containing sterile vermiculite. Seedlings at the two-leaf stage, about seven days of planting, were transplanted into 15 cm plastic pots containing promix (Premier Brands Inc., New Rochelle, N.Y., USA). Pots were placed in a greenhouse maintained at 25±2° C. with a day/night cycle of 16/8 h. Plants were watered as required.\nas §2, §3"}, "Grapes (cv De Chaunac)": {"test_system": "Grapes (cv De Chaunac)", "assay": "Photosynthesis of field-grown grape after LCO spray", "description": "These experiments were conducted at the horticultural research facility of McGill University, Ste-Anne-de-Bellevue, Quebec, Canada during July 2000. LCO of different concentrations (10^−8, and 10^−10M) were prepared as described above. Branches of apple (cv Empire) and Grapes (cv De Chaunac) were sprayed with LCO and the photosynthesis was observed every 24 h for five days with a Li-Cor 6400 portable photosynthesis system (Li-Cor Inc., USA). Each treatment was applied to three branches from the same plant. Care was taken to ensure that the branches were on the same level and orientation. Part of each branch was sprayed with LCO and the remaining part served as a control. The control portion of the branch was sprayed with distilled water containing the same amount of Tween 20 as the LCO treatment solution. Observations were taken on 15 leaves per replicate for each treatment. For both apple and grape the entire procedure was repeated twice on two different plants."}, "[3]": {"test_system": "rice (Oryza sativa cv Cypress)", "assay": "Photosynthesis of rice after LCO spray, greenhouse", "description": "as §1, §2, §3"}}, "data": [{"substance": "Nod Bj V (C18:1, MeFeu)", "values": [{"measurement": "Ci", "setting": "corn (Pioneer 3921); field grown plants", "value": "no such effect"}, {"measurement": "increase of photosynthetic rate, maximum", "setting": "corn (Pioneer 3921); field, two days after treatment application", "value": "approximately 10%"}, {"measurement": "100-seed weight", "setting": "soybean; LCO 10^−6 M", "value": 17.4, "unit": "g"}, {"measurement": "Pod weight/plant", "setting": "soybean; LCO 10^−6 M", "value": 31.4, "unit": "g"}, {"measurement": "Pods/plant", "setting": "soybean; LCO 10^−6 M", "value": 46.8}, {"measurement": "Seeds/plant", "setting": "soybean; LCO 10^−6 M", "value": 118.0}, {"measurement": "Seed yield/plant", "setting": "soybean; LCO 10^−6 M", "value": 21.0, "unit": "g"}, {"measurement": "Seed yield", "setting": "soybean; LCO 10^−6 M", "value": 10.5, "unit": "t/ha"}, {"measurement": "100-seed weight", "setting": "soybean; LCO 10^−8 M", "value": 17.8, "unit": "g"}, {"measurement": "Pod weight/plant", "setting": "soybean; LCO 10^−8 M", "value": 24.1, "unit": "g"}, {"measurement": "Pods/plant", "setting": "soybean; LCO 10^−8 M", "value": 39.1}, {"measurement": "Seeds/plant", "setting": "soybean; LCO 10^−8 M", "value": 96.4}, {"measurement": "Seed yield/plant", "setting": "soybean; LCO 10^−8 M", "value": 16.2, "unit": "g"}, {"measurement": "Seed yield", "setting": "soybean; LCO 10^−8 M", "value": 8.1, "unit": "t/ha"}, {"measurement": "100-seed weight", "setting": "soybean; LCO 10^−10 M", "value": 18.1, "unit": "g"}, {"measurement": "Pod weight/plant", "setting": "soybean; LCO 10^−10 M", "value": 29.1, "unit": "g"}, {"measurement": "Pods/plant", "setting": "soybean; LCO 10^−10 M", "value": 47.7}, {"measurement": "Seeds/plant", "setting": "soybean; LCO 10^−10 M", "value": 117.7}, {"measurement": "Seed yield/plant", "setting": "soybean; LCO 10^−10 M", "value": 21.8, "unit": "g"}, {"measurement": "Seed yield", "setting": "soybean; LCO 10^−10 M", "value": 10.9, "unit": "t/ha"}, {"measurement": "100-seed weight", "setting": "soybean; LCO spray, 2000 field season", "value": "not increased"}, {"measurement": "leaf internal CO2 concentration", "setting": "[1]", "value": "decreased"}, {"measurement": "stomatal aperture", "setting": "[1]", "value": "did not significantly alter"}, {"measurement": "increase in photosynthesis", "setting": "[1]; in general", "value": "10-20%"}, {"measurement": "intercellular CO2 concentration", "setting": "[2]", "value": "unaffected"}, {"measurement": "stomatal conductance", "setting": "[2]", "value": "increases"}, {"measurement": "transpiration", "setting": "[2]", "value": "increases"}, {"measurement": "increase in photosynthesis", "setting": "[2]; in general", "value": "10-20%"}, {"measurement": "Leaf area", "setting": "soybean (cv Bayfield); 10^−6 M", "value": 223.6, "unit": "cm^2"}, {"measurement": "Shoot dry weight", "setting": "soybean (cv Bayfield); 10^−6 M", "value": 1065.8, "unit": "mg"}, {"measurement": "Leaf area", "setting": "soybean (cv Bayfield); 10^−7 M", "value": 193.6, "unit": "cm^2"}, {"measurement": "Shoot dry weight", "setting": "soybean (cv Bayfield); 10^−7 M", "value": 1135.2, "unit": "mg"}, {"measurement": "Leaf area", "setting": "soybean (cv Bayfield); 10^−8 M", "value": 217.6, "unit": "cm^2"}, {"measurement": "Shoot dry weight", "setting": "soybean (cv Bayfield); 10^−8 M", "value": 1095.7, "unit": "mg"}, {"measurement": "Leaf area", "setting": "soybean (cv Bayfield); 10^−9 M", "value": 194.3, "unit": "cm^2"}, {"measurement": "Shoot dry weight", "setting": "soybean (cv Bayfield); 10^−9 M", "value": 999.9, "unit": "mg"}, {"measurement": "Leaf area", "setting": "soybean (cv Bayfield); 10^−10 M", "value": 195.3, "unit": "cm^2"}, {"measurement": "Shoot dry weight", "setting": "soybean (cv Bayfield); 10^−10 M", "value": 1012.3, "unit": "mg"}, {"measurement": "Leaf area", "setting": "soybean (cv Bayfield); 10^−11 M", "value": 202.6, "unit": "cm^2"}, {"measurement": "Shoot dry weight", "setting": "soybean (cv Bayfield); 10^−11 M", "value": 931.6, "unit": "mg"}, {"measurement": "Leaf area", "setting": "soybean (cv Bayfield); 10^−12 M", "value": 230.3, "unit": "cm^2"}, {"measurement": "Shoot dry weight", "setting": "soybean (cv Bayfield); 10^−12 M", "value": 1060.8, "unit": "mg"}, {"measurement": "shoot dry weights vs control plants", "setting": "soybean (cv Bayfield); p<0.05", "value": "higher"}, {"measurement": "leaf areas vs control plants", "setting": "soybean (cv Bayfield); p=0.09", "value": "only increased numerically"}, {"measurement": "stomatal conductance", "setting": "Grapes (cv De Chaunac); 10^−10 M, three days after treatment", "value": "increase"}, {"measurement": "photosynthetic rates", "setting": "Grapes (cv De Chaunac); greatest three days after treatment with 10^−10 M", "value": "increases"}, {"measurement": "intercellular CO2 concentration", "setting": "[3]", "value": "unaffected"}, {"measurement": "stomatal conductance", "setting": "[3]", "value": "increases"}, {"measurement": "transpiration", "setting": "[3]", "value": "increases"}, {"measurement": "increase in photosynthesis", "setting": "[3]; in general", "value": "10-20%"}]}]}
